Test results as given in DBAASP.
Converted amounts (≈) assume the structure as drawn. “And” between values parts separate entries of the source, which are not always exact repeats. Equal entries are not always repeated. Each block holds one compound with its values, some of them ahead of it.

Experiments:
Experiment in all cases: ≥ marks a high value that may be exact or a test limit, other limits are often not marked, values filed in µg/mL are converted to µM
[1] = system: Acinetobacter baumannii NM75
[2] = system: Acinetobacter baumannii NM8
[3] = system: Candida albicans ATCC 90028
[4] = system: Escherichia coli ATCC 25726
[5] = system: Staphylococcus aureus ATCC 25923
[6] = system: Escherichia coli ATCC 11303
[7] = system: Escherichia coli ATCC 25922
Escherichia coli BL21 = system: Escherichia coli BL21
[8] = system: Escherichia coli KpC+001812446
[9] = system: Klebsiella pneumoniae ATCC 13883
[10] = system: Klebsiella pneumoniae KpC+001825971
[11] = system: Pseudomonas aeruginosa PAO1
[12] = system: Staphylococcus aureus ATCC 259230
[13] = system: Staphylococcus aureus ATCC 6538P
[14] = system: Staphylococcus aureus ATCC BAA-41
[15] = system: Staphylococcus epidermidis
[16] = system: Aeromonas hydrophila BCRC 13018
[17] = system: Enterococcus faecalis BCRC 10066
[18] = system: Helicobacter pylori ATCC 43504
[19] = system: Helicobacter pylori ATCC 43629
[20] = system: Helicobacter pylori ATCC 700392
Helicobacter pylori = system: Helicobacter pylori
[21] = system: Pseudomonas aeruginosa ATCC 19660
[22] = system: Streptococcus agalactiae 819
[23] = system: Streptococcus agalactiae BCRC 10787
Vibrio alginolyticus = system: Vibrio alginolyticus
Vibrio vulnificus 204 = system: Vibrio vulnificus 204
[24] = system: Bacillus subtilis ATCC 9372
[25] = system: Escherichia coli ATCC 8739
[26] = system: Proteus vulgaris NCTC 4635
[27] = system: Pseudomonas aeruginosa ATCC 9027
[28] = system: Staphylococcus aureus ATCC 6538
[29] = system: Candida albicans CIB 45437
[30] = system: Escherichia coli CIB 84492
[31] = system: Staphylococcus aureus CIB 85462
[32] = system: Aggregatibacter actinomycetemcomitans ATCC 29522
[33] = system: Batrachochytrium dendrobatidis
[34] = system: Enterobacter cloacae NHTCC 53001
[35] = system: Klebsiella pneumoniae ATCC 700603
[36] = system: Klebsiella pneumoniae KK3 9904
[37] = system: Proteus mirabilis ATCC 25933
[38] = system: Pseudomonas aeruginosa ATCC 27853
[39] = system: Staphylococcus aureus ATCC 29213
[40] = system: Staphylococcus aureus ATCC 33591
[41] = system: Staphylococcus aureus ATCC 700699

MIC [1]: 2.5 µM (≈ 5.8 µg/mL)
MIC [2]: 5 µM (≈ 11.6 µg/mL)
MIC [3]: 20 µM (≈ 46.4 µg/mL)
MIC [4]: 10 µM (≈ 23.2 µg/mL)
MIC [5]: > 250 µM
Structure (SMILES): CC[C@H](C)[C@H](NC(=O)CNC(=O)[C@H](CCCCN)NC(=O)[C@@H](NC(=O)[C@H](CC(C)C)NC(=O)[C@H](CO)NC(=O)CNC(=O)[C@H](CC(C)C)NC(=O)CNC(=O)[C@H](C)NC(=O)[C@H](CCCCN)NC(=O)[C@H](Cc1ccccc1)NC(=O)[C@@H](NC(=O)[C@H](CCCCN)NC(=O)[C@H](CCCCN)NC(=O)[C@H](CC(C)C)NC(=O)CN)[C@@H](C)CC)C(C)C)C(=O)N[C@@H](CCCCN)C(=O)N[C@@H](C)C(=O)N[C@@H](Cc1cnc[nH]1)C(=O)N[C@H](C(=O)N[C@@H](C)C(=O)N[C@@H](CO)C(N)=O)C(C)C [GLKKIFKAGLGSLVKGIKAHVAS]

MIC [6]: ≥ 50 µM
MIC [7]: 5 µM (≈ 8.86 µg/mL)
MIC (Escherichia coli BL21): 0.707 µM (≈ 1.25 µg/mL)
MIC [8]: 5 µM (≈ 8.86 µg/mL)
MIC [9]: ≥ 36 µM
MIC [10]: 9 µM (≈ 15.9 µg/mL)
MIC [11]: 2.83 µM (≈ 5.01 µg/mL)
MIC [12]: ≥ 50 µM
MIC [13]: 1 µM (≈ 1.77 µg/mL)
MIC [14]: 1.41 µM (≈ 2.5 µg/mL)
MIC [15]: 0.707 µM (≈ 1.25 µg/mL)
Structure (SMILES): CC[C@H](C)[C@H](NC(=O)[C@H](CCCCN)NC(=O)[C@H](CCCCN)NC(=O)[C@H](Cc1ccccc1)NC(=O)[C@H](CC(C)C)NC(=O)[C@H](CCCCN)NC(=O)[C@H](Cc1c[nH]c2ccccc12)NC(=O)[C@@H](N)CCCCN)C(=O)NCC(=O)N[C@@H](C)C(=O)N[C@H](C(=O)N[C@@H](CC(C)C)C(=O)N[C@@H](CCCCN)C(=O)N[C@H](C(=O)N[C@@H](CC(C)C)C(=O)O)C(C)C)C(C)C [KWKLFKKIGAVLKVL]

MIC [32]: 24.8 µM (≈ 63.3 µg/mL)
MIC [33]: ≥ 100 µM
MIC [34]: 20 µM (≈ 51 µg/mL)
MIC [35]: 100 µM (≈ 255 µg/mL)
MIC [36]: ≥ 80 µM
MIC [37]: ≥ 160 µM
MIC [38]: 80 µM and 100 µM
MIC [5]: 110 µM (≈ 280 µg/mL)
MIC [39]: > 100 µM
MIC [40]: ≥ 100 µM
MIC [41]: ≥ 100 µM
Structure (SMILES): CC[C@H](C)[C@H](NC(=O)[C@H](CC(=O)O)NC(=O)[C@H](CCCCN)NC(=O)[C@H](C)NC(=O)[C@H](C)NC(=O)CNC(=O)[C@H](CCCCN)NC(=O)[C@H](CC(C)C)NC(=O)[C@@H](NC(=O)[C@H](CC(=O)O)NC(=O)[C@@H](NC(=O)[C@@H](NC(=O)CN)C(C)C)C(C)C)[C@@H](C)CC)C(=O)N[C@@H](C)C(=O)NCC(=O)N[C@@H](Cc1cnc[nH]1)C(=O)N[C@@H](CC(C)C)C(=O)N[C@@H](C)C(=O)N[C@@H](CO)C(=O)N[C@@H](CCCCN)C(=O)N[C@H](C(=O)N[C@@H](CCSC)C(=O)N[C@@H](CC(N)=O)C(=O)N[C@@H](CCCCN)C(=O)N[C@@H](CC(C)C)C(N)=O)C(C)C [GVVDILKGAAKDIAGHLASKVMNKL]

The next lines start with the compound.

Structure (SMILES): CC(C)C[C@H](NC(=O)[C@@H](NC(=O)[C@H](CO)NC(=O)[C@H](CC(=O)O)NC(=O)[C@H](Cc1c[nH]c2ccccc12)NC(=O)[C@H](CC(=O)O)NC(=O)[C@@H](N)Cc1ccccc1)C(C)C)C(=O)N[C@@H](CCCCN)C(=O)NCC(=O)N[C@H](C(=O)N[C@@H](CCC(=O)O)C(=O)NCC(=O)N[C@@H](Cc1ccccc1)C(=O)N[C@H](C(=O)N[C@@H](CCCN=C(N)N)C(=O)NCC(=O)N[C@@H](Cc1ccc(O)cc1)C(=O)N[C@@H](Cc1ccccc1)C(N)=O)C(C)C)C(C)C [FDWDSVLKGVEGFVRGYF]
MIC [16]: 11.1 µM (≈ 23.6 µg/mL)
MIC [17]: 11.1 µM (≈ 23.6 µg/mL)
MIC [18]: 5.66 µM (≈ 12 µg/mL)
MIC [19]: 5.66 µM (≈ 12 µg/mL)
MIC [20]: 5.66 µM (≈ 12 µg/mL)
MIC (Helicobacter pylori): 5.66 µM (≈ 12 µg/mL)
MIC [21]: 11.1 µM (≈ 23.6 µg/mL)
MIC [22]: 11.1 µM (≈ 23.6 µg/mL)
MIC [23]: 11.1 µM (≈ 23.6 µg/mL)
MIC (Vibrio alginolyticus): 11.1 µM (≈ 23.6 µg/mL)
MIC (Vibrio vulnificus 204): 11.1 µM (≈ 23.6 µg/mL)

Structure (SMILES): CC[C@H](C)[C@H](NC(=O)[C@@H](NC(=O)[C@@H](NC(=O)[C@H](CC(=O)O)NC(=O)[C@H](Cc1ccccc1)NC(=O)[C@H](CC(C)C)NC(=O)CN)C(C)C)C(C)C)C(=O)NCC(=O)NCC(=O)N[C@@H](CC(C)C)C(=O)O [GLFDVVIGGL]
MIC [24]: ≥ 1040 µM
MIC [25]: ≥ 1040 µM
MIC [26]: ≥ 1040 µM
MIC [27]: > 1040 µM
MIC [28]: > 1040 µM

Structure (SMILES): CC[C@H](C)[C@H](NC(=O)CN)C(=O)N[C@@H](Cc1ccccc1)C(=O)NCC(=O)N[C@@H](CCCCN)C(=O)N[C@H](C(=O)N[C@@H](CC(C)C)C(=O)NCC(=O)N[C@@H](C)C(=O)NCC(=O)N[C@@H](CCCCN)C(=O)N[C@@H](CCCCN)C(=O)N[C@H](C(=O)N[C@@H](CC(C)C)C(=O)N[C@H]1CSSC[C@@H](C(=O)O)NC(=O)[C@H](CC(C)C)NC(=O)CNC(=O)[C@H](CO)NC(=O)[C@H](CC(C)C)NC(=O)CNC1=O)C(C)C)[C@@H](C)CC [GIFGKILGAGKKVLCGLSGLC]
MIC [29]: ≥ 62.9 µM
MIC [7]: 15.7 µM (≈ 32 µg/mL)
MIC [30]: 15.7 µM (≈ 32 µg/mL)
MIC [5]: 15.7 µM (≈ 32 µg/mL)
MIC [31]: 7.86 µM (≈ 16 µg/mL)
